Series [1] relates to tumors. The settings on record: mouse, in vivo.
Procedure: (§1) The peptides were allowed to circulate for 2 hrs and organs were collected and viewed under UV light (left panel) or white light (right panel). […] Fluorescence in each tissue was quantified with Image J software. Statistical analysis was performed with Student's t-test. […] The circulation time for the free peptides was 2 hrs, 15 min for the peptide-displaying phage, and 3 hrs for the peptide-coupled micelles. […] Representative fields from multiple sections of each of three tumors are shown.
(§2) Synthetic peptides labeled with fluorescein (Karmali et al. (2008)) (approximately 200 μg) were intravenously injected into tumor-bearing mice and allowed to circulate for 15 min to 2 hrs. Tissues were collected and observed under UV light (Illumatool Bright Light System LT-9900) or processed for immunofluorescence (Karmali et al. (2008)). To assess phage homing (Zhang et al., (2006)), 10^9 pfu of T7 phage were intravenously injected into tumor-bearing mice, and allowed to circulate for 15 min. The mice were perfused through the heart with PBS containing 1% BSA and tissues were harvested for immunofluorescence.
The test system of the next series is mitochondrial membranes. The settings on record: concentration of 10 μM; cited from earlier work.
In a further series the test system is MDA-MB-435 cells. Put plainly: FACS analysis of FITC-peptide binding to siRNA-transfected MDA-MB-435 cells. Format: cell-based, human. The settings on record: 10 μM FITC peptide, 1 h at 4° C. The method, then:
MDA-MB-435 cells were transiently transfected with gC1qR/p32-specific or control siRNAs. […] The amount of fluorescence in living cells was analyzed by FACS. Cells incubated in the absence of peptide served as FITC negative control. Compared to control siRNA transfected cells, down-regulation of gC1qR/p32 expression (in the presence of gC1qR/p32 siRNA) caused a shift in the peak of Lyp-1 fluorescence but not control peptide fluorescence.
Cultured cells were detached with cell enzyme-free dissociation buffer (Gibco/Invitrogen) and collected in PBS containing 1% BSA (PBSB). Single cells suspensions from tumors were obtained as indicated above. For FACS staining, 2.5×10^5 cells were resuspended in 100 μl of PBSB and incubated with polyclonal anti-full-length gC1qR/p32 or rabbit IgG (20 μg/ml) in PBSB for 30 min at 4° C. The cells were washed in PBSB and stained with goat anti rabbit Alexa 488 (2.5 μg/ml) for 30 min at 4° C. For FACS analysis of bound FITC-peptides, cultured cells were detached as above and incubated with 10 μM of FITC-peptides in 10% FCS/DMEM for 1 hour at 4° C. After washes with PBSB, the cells were resuspended in PBS containing 2 μg/ml of propidium iodide (PI, Molecular Probes/Invitrogen) to distinguish between live and dead cells, and 10,000 cells per sample were analyzed using a BD Biosciences FACSort.

Series [2] has as its system tumors. The series can be described thus: In vivo peptide and phage homing (iRGD). The settings on record: peptides 2 hrs, phage 15 min circulation.
Procedure: as §1, §2
The next series concerns PPC1 cells. The series can be described thus: Phage internalization assay in PPC1 cells. The class given is cell-based, human. The text has this:
Mice were maintained in accordance with institutional guidelines and the animal experiments were approved by the Animal Research Committees at University of California, Santa Barbara and San Francisco. transgenic tumor mice (Bardeesy and DePinho, (2002); Arbeit et al., Progressive squamous epithelial neoplasia in K14-human papillomavirus type 16 transgenic mice. J. Virol. 68, 4358-4368 (1994); Hanahan, Heritable formation of pancreatic β-cell tumors in transgenic mice expressing recombinant insulin/simian virus 40 oncogenes. Nature 315, 115-122 (1985)) and xenograft tumors generated by injecting BALB/c nude mice (Harlan Sprague Dawley, Indianapolis, Ind.) with 10^6 human cancer cells orthotopically, intracardiacly or into the brain and tibia were used. […] Phage homing studies in vivo and cell binding studies in vitro (Zhang et al., (2006)), immunofluorescence (Karmali et al. (2008)) and flow cytometry (Sugahara et al., Hyaluronan oligosaccharides induce CD44 cleavage and promote cell migration in CD44-expressing tumor cells. J. Biol. Chem. 278, 32259-32265 (2003)) were done as described. Whole body imaging was performed 3 hrs after injecting the Cy7-labelled micelles with the Odyssey Infrared Imaging System (LI-COR Biosciences, Lincoln, Nebr.). […] FAM-labeled peptides in tissues were quantified by measuring the fluorescence with Image J software. […]

Here are results for four compounds from patent US8753604B2, “Methods and compositions for synaphically-targeted treatment for cancer” (Sanford-Burnham Medical Research Institute, priority 2008, dated 2014).

Bridges are numbered along the chain shown (N, C = ends). Where no end group is shown, it is not given here. The star is where a group is joined. FITC = O=C1OC2(c3ccc(O)cc3Oc3cc(O)ccc32)c2ccc(NC(=S)*)cc21

As to `N=C(N)NCCC[C@@H]1NC(=O)[C@@H](N)CSSC[C@@H](C(=O)O)NC(=O)[C@H](CC(=O)O)NC(=O)[C@@H]2CCCN2C(=O)CNC(=O)[C@H](CCCCN)NC(=O)[C@H](CC(=O)O)NC(=O)CNC1=O` [iRGD], in the series with tumors [1], the “tumor homing over a control peptide” value stood at 12 fold.
For D(KLAKLAK)2, the mitochondrial swelling result with mitochondrial membranes is recorded as “marked mitochondrial swelling”.
“FITC-LyP-1: FITC conjugated LyP-1 peptide ({FITC}-CGNKRTRGC; disulfide 1-9 (inferred); not fully specified (C-terminus))”: the “FITC-peptide binding to cells after gC1qR/p32 siRNA versus control siRNA” value with MDA-MB-435 cells is reported as “reduction in the binding”.
“RGD-4C: RGD peptide (SEQ ID NO:41) with strong affinity for αv integrins (RGDCCCC; homing peptide)”: the “distribution within tumor (confocal microscopy)” value in the series on tumors [2] is “accumulated only in and around tumor blood vessels”. For the same compound, the “phage internalization within PPC1 cells” value in the series with PPC1 cells is “nor did they internalize”.
